Measurements from patent US20240252488A1 (KOREA RESEARCH INSTITUTE OF CHEMICAL TECHNOLOGY, priority 2020, published 2024).
pKd: −log10 of the molar value.

Assays:
[1] = tested on: FADD−/− Jurkat cells; assay: Necroptosis inhibition assay, TNF-α-induced necroptosis (CellTiter-Glo 2.0); assay type: cell-based, human; conditions: TNF-α 15 ng/mL; for Necroptosis inhibition assay (Rescue %) 1 μM: compound 1 μM; for Necroptosis inhibition assay (Rescue %) 10 μM: compound 10 μM
In short: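 Necroptosis induced by 15 ng/mL TNF-α (final) for 20–24 h at 37 °C, after a 30 min room-temperature pretreatment of FADD-deficient Jurkat cells with 0.1, 1 or 10 μM compound. ATP-based luminescence gave viability, from which inhibition rate and cytotoxicity were derived.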

[2] = target: T1, MLKL (Homo sapiens, UniProt Q8NB16); assay: MLKL degradation assay in HepG2 cell line (western blot); assay type: cell-based; parameters: endogenous in cells; host or cells: HepG2 or HaCaT; conditions: cell line not given; for Degradation assay (Degradation %) 1 μM: compound 1 μM; for Degradation assay (Degradation %) 10 μM: compound 10 μM
T1 sequence (Q8NB16 1-471): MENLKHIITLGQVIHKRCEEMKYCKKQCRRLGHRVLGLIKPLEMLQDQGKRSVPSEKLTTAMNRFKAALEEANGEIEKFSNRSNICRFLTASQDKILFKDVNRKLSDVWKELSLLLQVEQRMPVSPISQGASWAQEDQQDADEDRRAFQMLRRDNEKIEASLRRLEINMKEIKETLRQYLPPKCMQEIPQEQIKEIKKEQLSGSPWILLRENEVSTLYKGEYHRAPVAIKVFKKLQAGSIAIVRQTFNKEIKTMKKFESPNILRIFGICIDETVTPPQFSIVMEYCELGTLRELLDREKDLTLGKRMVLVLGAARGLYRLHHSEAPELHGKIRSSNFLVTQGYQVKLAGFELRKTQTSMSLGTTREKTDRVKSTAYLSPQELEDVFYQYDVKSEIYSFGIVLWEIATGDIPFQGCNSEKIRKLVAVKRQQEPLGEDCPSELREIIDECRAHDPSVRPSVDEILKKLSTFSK
In short: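 Western blot chemiluminescence of MLKL in equal-protein lysates (10-15 μg, BCA-adjusted). Before lysis, HepG2 cells were exposed to 1 or 10 μM (final) test compound for 20-24 h at 37 °C.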

[3] = target: T1, MLKL; assay: Measurement of binding affinity with MLKL receptor (competitive binding assay, Kd); parameters: made in house; host or cells: HEK 293 cell line (T7 phage in E. coli BL21-derived host is also described)
In short: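 Competitive displacement of MLKL, expressed in HEK 293 cells and DNA-tagged for qPCR, from immobilized ligand on biotin-blocked beads. Compounds were added from 111× DMSO stocks (final DMSO 0.9%). Kinase left in the eluates was quantified by qPCR to give Kd.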

| Compound | Necroptosis inhibition assay (Rescue %) 1 μM [1] [%] | Necroptosis inhibition assay (Rescue %) 10 μM [1] [%] | Degradation assay (Degradation %) 1 μM [2] [%] | Degradation assay (Degradation %) 10 μM [2] [%] | pKd [3] | Necroptosis inhibition assay (Rescue %) 1 μM ([1]; FADD−/− Jurkat cells) [%] | Necroptosis inhibition assay (Rescue %) 10 μM ([1]; FADD−/− Jurkat cells) [%] |
| --- | --- | --- | --- | --- | --- | --- | --- |
| Nc1ncc(-c2cnn(C3CCN(CCCCCCCCCCNC(=O)CNc4ccc5nnn(C6CCC(=O)NC6=O)c(=O)c5c4)CC3)c2)nc1C(=O)O[C@@H](C(=O)Nc1ccc(F)cc1)c1ccccc1 (stereo partly drawn) [TDH-173, (R)-2-((4-fluorophenyl)amino)-2-oxo-1-phenylethyl 3-amino-6-(1-(1-(10-(2-((3-(2,6-dioxopiperidin-3-yl)-4-oxo-3,4-dihydrobenzo[d][1,2,3]triazin-6-yl)amino)acetamido)decyl)piperidin-4-yl)-1H-pyrazol-4-yl)pyrazine-2-carboxylate] | 47.27 | 35.55 | 61.08 | 75.11 | 7.77 | – | – |
| Nc1ncc(-c2cnn(C3CCN(CCCC4CCN(C(=O)COc5ccc6c(c5)C(=O)N(C5CCC(=O)NC5=O)C6=O)CC4)CC3)c2)nc1C(=O)O[C@@H](C(=O)Nc1ccc(F)cc1)c1ccccc1 (stereo partly drawn) [TDH-482, (R)-2-((4-fluorophenyl)amino)-2-oxo-1-phenylethyl 3-amino-6-(1-(1-(3-(1-(2-((2-(2,6-dioxopiperidin-3-yl)-1,3-dioxoisoindolin-5-yl)oxy)acetyl)piperidin-4-yl)propyl)piperidin-4-yl)-1H-pyrazol-4-yl)pyrazine-2-carboxylate] | – | – | 91.19 | 88.98 | 8.92 | 78.94 | 42.16 |
| Nc1ncc(-c2cnn(C3CCN(C(=O)C4CCN(C(=O)CCc5cccc6c5CN(C5CCC(=O)NC5=O)C6=O)CC4)CC3)c2)nc1C(=O)O[C@@H](C(=O)Nc1ccc(F)cc1)c1ccccc1 (stereo partly drawn) [TDH-388, (R)-2-((4-fluorophenyl)amino)-2-oxo-1-phenylethyl 3-amino-6-(1-(1-(1-(3-(2-(2,6-dioxopiperidin-3-yl)-1-oxoisoindolin-4-yl)propanoyl)piperidine-4-carbonyl)piperidin-4-yl)-1H-pyrazol-4-yl)pyrazine-2-carboxylate] | 22.66 | 22.49 | 68.53 | 80.04 | 8.64 | – | – |
| Nc1ncc(-c2cnn(C3CCN(CC4CCN(CC5CCN(C(=O)C6CN(C7=CC(=O)N(C8CCC(=O)NC8=O)C7=O)C6)CC5)CC4)CC3)c2)nc1C(=O)O[C@@H](C(=O)Nc1ccc(F)cc1)c1ccccc1 (stereo partly drawn) [TDH-533, (R)-2-((4-fluorophenyl)amino)-2-oxo-1-phenylethyl 3-amino-6-(1-(1-((1-((1-(1-(1-(2,6-dioxopiperidin-3-yl)-2,5-dioxo-2,5-dihydro-1H-pyrrol-3-yl)azetidine-3-carbonyl)piperidin-4-yl)methyl)piperidin-4-yl)methyl)piperidin-4-yl)-1H-pyrazol-4-yl)pyrazine-2-carboxylate] | – | – | 33.35 | 29.05 | 9.33 | 11.86 | 22.99 |
| Nc1ncc(-c2cnn([C@H]3CCN(CC4CCN(C(=O)CNc5ccc6c(c5)C(=O)N(C5CCC(=O)NC5=O)C6=O)CC4)C3)c2)nc1C(=O)OC(C(=O)Nc1ccc(F)cc1)c1ccccc1 (stereo partly drawn) [TDH-282, 2-((4-fluorophenyl)amino)-2-oxo-1-phenylethyl 3-amino-6-(1-((3S)-1-((1-((2-(2,6-dioxopiperidin-3-yl)-1,3-dioxoisoindolin-5-yl)glycyl)piperidin-4-yl)methyl)pyrrolidin-3-yl)-1H-pyrazol-4-yl)pyrazine-2-carboxylate] | 77.92 | 67.84 | 60.51 | 58.02 | 8.25 | – | – |
| Nc1ncc(-c2cnn(C3CCN(CCOCCNC(=O)C4CN(c5cccc6c5C(=O)N(C5CCC(=O)NC5=O)C6=O)C4)CC3)c2)nc1C(=O)O[C@@H](C(=O)Nc1ccc(F)cc1)c1ccccc1 (stereo partly drawn) [TDH-126, (R)-2-((4-fluorophenyl)amino)-2-oxo-1-phenylethyl 3-amino-6-(1-(1-(2-(2-(1-(2-(2,6-dioxopiperidin-3-yl)-1,3-dioxoisoindolin-4-yl)azetidine-3-carboxamido)ethoxy)ethyl)piperidin-4-yl)-1H-pyrazol-4-yl)pyrazine-2-carboxylate] | 19.35 | 58.35 | 31.29 | 81.59 | 8.04 | – | – |
| Nc1ncc(-c2cnn(C3CCN(CC4CCN(c5cccc6c5C(=O)N(C5CCC(=O)NC5=O)C6=O)CC4)CC3)c2)nc1C(=O)O[C@@H](C(=O)Nc1ccc(F)cc1)c1ccccc1 (stereo partly drawn) [TDH-149, (R)-2-((4-fluorophenyl)amino)-2-oxo-1-phenylethyl 3-amino-6-(1-(1-((1-(2-(2,6-dioxopiperidin-3-yl)-1,3-dioxoisoindolin-4-yl)piperidin-4-yl)methyl)piperidin-4-yl)-1H-pyrazol-4-yl)pyrazine-2-carboxylate] | 82.1 | 55.19 | 48.51 | 77.36 | 7.40 | – | – |
| Nc1ncc(-c2cnn(C3CCN(C[C@H]4CC[C@H](CNC(=O)C5CCN(c6cccc7c6C(=O)N(C6CCC(=O)NC6=O)C7=O)CC5)CC4)CC3)c2)nc1C(=O)O[C@@H](C(=O)Nc1ccc(F)cc1)c1ccccc1 (stereo partly drawn) [TDH-349, (R)-2-((4-fluorophenyl)amino)-2-oxo-1-phenylethyl 3-amino-6-(1-(1-(((1r,4r)-4-((1-(2-(2,6-dioxopiperidin-3-yl)-1,3-dioxoisoindolin-4-yl)piperidine-4-carboxamido)methyl)cyclohexyl)methyl)piperidin-4-yl)-1H-pyrazol-4-yl)pyrazine-2-carboxylate] | 45.54 | 42.11 | 93.71 | 92.68 | 8.43 | – | – |
| Nc1ncc(-c2cnn(C3CCN(CCCN4CCN(C(=O)c5ccc(C(=O)NC6CCC(=O)NC6=O)cc5)CC4)CC3)c2)nc1C(=O)O[C@@H](C(=O)Nc1ccc(F)cc1)c1ccccc1 (stereo partly drawn) [TDH-535, (R)-2-((4-fluorophenyl)amino)-2-oxo-1-phenylethyl 3-amino-6-(1-(1-(3-(4-(4-((2,6-dioxopiperidin-3-yl)carbamoyl)benzoyl)piperazin-1-yl)propyl)piperidin-4-yl)-1H-pyrazol-4-yl)pyrazine-2-carboxylate] | – | – | 57.69 | 44.41 | 9.02 | 20.08 | 23.78 |
| Nc1ncc(-c2cn(C3CCN(CC4CCN(c5ccc6c(c5)C(=O)N(C5CCC(=O)NC5=O)C6=O)CC4)CC3)nn2)nc1C(=O)OC(C(=O)Nc1ccc(F)cc1)c1ccccc1 (stereo not drawn) [TDH-226, 2-((4-fluorophenyl)amino)-2-oxo-1-phenylethyl 3-amino-6-(1-(1-((1-(2-(2,6-dioxopiperidin-3-yl)-1,3-dioxoisoindolin-5-yl)piperidin-4-yl)methyl)piperidin-4-yl)-1H-1,2,3-triazol-4-yl)pyrazine-2-carboxylate] | 36.17 | 17.82 | – | 36.06 | 7.80 | – | – |
| Nc1ncc(-c2cnn([C@H]3CCN(CCOCCOCCNC(=O)CNc4cccc5c4C(=O)N(C4CCC(=O)NC4=O)C5=O)C3)c2)nc1C(=O)OC(C(=O)Nc1ccc(F)cc1)c1ccccc1 (stereo partly drawn) [TDH-263, 2-((4-fluorophenyl)amino)-2-oxo-1-phenylethyl 3-amino-6-(1-((3S)-1-(2-(2-(2-(2-((2-(2,6-dioxopiperidin-3-yl)-1,3-dioxoisoindolin-4-yl)amino)acetamido)ethoxy)ethoxy)ethyl)pyrrolidin-3-yl)-1H-pyrazol-4-yl)pyrazine-2-carboxylate] | 16.13 | 57.97 | 76.27 | 71.82 | 8.13 | – | – |
